Source: patent publication US20180339066A1, “Methods and Compositions for Enhancing Transduction Efficiency of Retroviral Vectors” (The Scripps Research Institute, priority 2013, published 2018)

Key:
[1] = test system: human cord blood CD34+ cells; test: HIV-1 based lentiviral vector transduction of cord blood CD34+ cells, GFP by flow cytometry; type: cell-based; conditions: for transduction efficiency: added with vector or delayed by 2 or 6 hours
[2] = test system: stimulated cord blood CD34+ cells; test: Quantification of HIV-1 reverse transcription products by qPCR; conditions: MOI=25, 20 μg/ml rapamycin
Protocol: Quantification of HIV-1 reverse transcription products. Stimulated cord blood CD34^+ cells (2-3E5) were transduced with an MOI of 25 in the presence of 20 μg/ml rapamycin or DMSO, and harvested at 6, 12, or 24 hours after the start of transduction by freezing cell pellets at −80° C. Total DNA was extracted using the QiaAmp DNA mini kit, and treated with Dpnl for 2-4 hours to eliminate plasmid DNA. Quantitative PCR was carried out on the Roche LightCycler 480 using previously published primer and probe sequences (Prasad et al., HIV Protocols: Second Edition 485, 2009).

[3] = test system: primitive HSCs (serial repopulating cells); test: Serial NSG mouse transplantation of transduced cord blood CD34+ cells; type: in vivo, human
Protocol: (§1) Colony forming assay, NSG mouse reconstitution, and serial transplantation. For colony forming assays, transduced cord blood CD34^+ HSPCs were counted and 100 cells were seeded in 1.5 ml methocult4434 (StemCell Technologies) in 30 mm dishes in triplicate. Total BFU-E, CFU-GM, CFU-M, and CFU-GEMM colonies, as well as GFP+ colonies, were counted 16-18 days after plating using a fluorescent microscope. […] Mice were bled every 4 weeks starting from 8 weeks post injection, and sacrificed at 19 weeks to assess engraftment and GFP expression in the bone marrow, spleen, and thymus by flow cytometry. For serial transplantation, primary recipients were sacrificed at 12 weeks post injection, and bone marrow cells from both femurs of one mouse were injected into two irradiated secondary recipients, which were again sacrificed at 12 weeks post injection for flow cytometric analysis of bone marrow and spleen. NSG mice were maintained at the Scripps Research Institute Molecular and Experimental Medicine animal facility.
To stringently establish transduced cells as primitive HSCs, we carried out serial NSG mouse transplantation with cord blood CD34^+ cells transduced with or without rapamycin. […] Bone marrow cells of secondary recipients were again analyzed 12 weeks post injection.

[4] = test system: human cord blood CD34+ cells; test: Integrase-defective lentiviral vector (IDLV) transduction of cord blood CD34+ cells; conditions: MOI=50, two days after transduction
Protocol: Human cord blood CD34^+ cells were stimulated for 24 h and transduced with IDLVs, MOI=50, with or without 10 ng/μl rapamycin. GFP expression was assayed by flow cytometry every three days from 2-14 days post transduction. Data represent mean and standard deviation of independent transductions of two separate donors.
Cord blood CD34^+ cells were transduced with IDLVs in the absence or presence of rapamycin, and GFP expression was followed from 2-14 days post transduction.

[5] = test system: cord blood CD34+ cells; test: Colony forming assay and parallel liquid culture of transduced cord blood CD34+ cells; type: cell-based, human; conditions: stimulated cord blood CD34+ cells, MOI=25
Protocol: as §1
To determine whether primitive HSCs in the heterogeneous CD34^+ population are transduced in the presence of rapamycin, we tested the ability of transduced cord blood CD34^+ cells to engraft irradiated NSG mice. A fraction of transduced cells was assessed in parallel liquid culture and colony forming assays. […]

[6] = test system: NSG-repopulating cells; test: NSG mouse reconstitution with transduced cord blood CD34+ cells (long-term engraftment); type: in vivo, human
Protocol: as §1
To determine whether primitive HSCs in the heterogeneous CD34^+ population are transduced in the presence of rapamycin, we tested the ability of transduced cord blood CD34^+ cells to engraft irradiated NSG mice. A fraction of transduced cells was assessed in parallel liquid culture and colony forming assays. […] Mice were sacrificed 19 weeks after injection to assess long-term engraftment. […] This four-fold transduction enhancement in NSG-repopulating cells was more pronounced than in parallel liquid culture or CFU assay (FIG. 2C), indicating preferential transduction of primitive HSCs in the presence of rapamycin.

[7] = test system: p21 mRNA; test: p21 mRNA quantification by RT-PCR; conditions: cord blood CD34+ cells, 20 μg/ml rapamycin, 6 hours
[8] = NSG mice, 19 weeks after injection

Cn1cnc(N)c2ncnc1-2 [3-methyadenine, 3-methyladenine] was tested, and the GFP expression ([1]; autophagosome formation inhibited during transduction) was “decreased”.
For CCC(=O)N1CCN(c2ccc(-n3c(=O)ccc4cnc5ccc(-c6cnc7ccccc7c6)cc5c43)cc2C(F)(F)F)CC1 [Torin 1], the “in vitro transduction efficiency relative to DMSO control” value ([1]; 5 μM) was “enhanced” and the “transduction enhancement compared with rapamycin” value ([1]; 5 μM) was “comparable”.
With CO/C1=C\C(C)=C\[C@@H](C)[C@@H](O)[C@@H](C)C/C(C)=C/C=C/[C@H](OC)[C@@H]([C@@H](C)[C@@H](O)[C@H](C)[C@@]2(O)C[C@@H](O)[C@H](C)[C@@H](C(C)C)O2)OC1=O [bafilomycin Al] the transduction efficiency [1] was “decreased”.
In the case of CCN(CC)CCCC(C)Nc1ccnc2cc(Cl)ccc12 (stereo not shown) [chloroquine], the transduction efficiency [1] was “decreased”.
With CO[C@H]1C[C@@H]2CC[C@@H](C)[C@@](O)(O2)C(=O)C(=O)N2CCCC[C@H]2C(=O)O[C@H]([C@H](C)C[C@@H]2CC[C@@H](O)[C@H](OC)C2)CC(=O)[C@H](C)/C=C(\C)[C@@H](O)[C@@H](OC)C(=O)[C@H](C)C[C@H](C)/C=C/C=C/C=C/1C [rapamycin] the “GFP positivity (percentage of GFP-expressing cells)” value ([1]; pre-stimulated cord blood CD34+ cells, rapamycin present during transduction, 11-14 days in culture, control 40%) was 80%, the “increase in per cell amount of 2-LTR circles” value [2] was 2-to-3 fold and the “increase in per cell amount of viral full-length DNA” value [2] was 2-to-3 fold. The “gene marking frequency relative to other known methods of treatment” value ([3]; human hematopoietic stem cells) was 4-5 fold, the “EGFP-marked human cell populations in secondary recipients” value ([3]; secondary mouse recipients) was over 90% and the “increase in percentage of GFP expressing cells” value [4] was 17%. For the same molecule, the “efficiency or proportion of colony formation” value [5] was “did not significantly affect”, the “GFP positivity in human CD45+ cells in mouse bone marrow” value ([6]; 20 μg/ml rapamycin during transduction, 19 weeks, control 20%) was 80% and the “long-term engraftment ability of CD34+ cells” value [6, 8] was “did not impair”. The “reconstitution levels in bone marrow vs control” value [6, 8] was “not statistically different” and the “up-regulation in p21 mRNA” value [7] was 3-5 fold.
